Measured values taken from US12493040B2, “Cancer detection method using sense of smell of nematode” (HIROTSU BIO SCIENCE INC., priority 2013, dated 2025).

Tested on: RNAi-treated eri-1 (mg366) nematodes
Experiment: RNAi screening of olfactory receptor genes: chemotaxis assay of RNAi-treated nematodes to odorants
Assay type: in vivo, Caenorhabditis elegans
Conditions: low concentration of attractant
Outline: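 eri-1 (mg366) worms knocked down by feeding RNAi (Ahringer library) on IPTG/ampicillin NGM plates with E. coli for 4 days, then tested for chemotaxis, 30–50 worms per assay. Odorants at 1 μl of 10^−3 or 10^−4 dilution, or 1 and 5 μl undiluted. Hits scored by z score, thresholds ±1.96 (P<0.05) or ±0.96.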

SMILES: c1cnccn1 [pyrazine]
- chemotaxis index (Control nematodes): 0.49 ± 0.019
- chemotaxis index (srh-10 RNAi-treated nematodes): 0.67
- chemotaxis index (srh-11 RNAi-treated nematodes): 0.87
- chemotaxis index (srh-15 RNAi-treated nematodes): 0.78
- chemotaxis index (srh-16 RNAi-treated nematodes): 0.82
- chemotaxis index (srh-18 RNAi-treated nematodes): 0.73
- chemotaxis index (srh-19 RNAi-treated nematodes): 0.33
- chemotaxis index (srh-22 RNAi-treated nematodes): 0.82
- chemotaxis index (srh-23 RNAi-treated nematodes): 0.43
- chemotaxis index (srh-24 RNAi-treated nematodes): 0.57
- chemotaxis index (srh-25 RNAi-treated nematodes): 0.64
- chemotaxis index (srh-27 RNAi-treated nematodes): 0.32
- chemotaxis index (srh-28 RNAi-treated nematodes): 0.23
- chemotaxis index (srh-36 RNAi-treated nematodes): 0.53
- chemotaxis index (srh-37 RNAi-treated nematodes): 0.88
- chemotaxis index (srh-39 RNAi-treated nematodes): 0.11
- chemotaxis index (srh-40 RNAi-treated nematodes): 0.51
- chemotaxis index (srh-41 RNAi-treated nematodes): 0.71
- chemotaxis index (srh-44 RNAi-treated nematodes): 0.44
- chemotaxis index (srh-45 RNAi-treated nematodes): 0.74
- chemotaxis index (srh-46 RNAi-treated nematodes): −0.04
- chemotaxis index (srh-48 RNAi-treated nematodes): 0.15
- chemotaxis index (srh-49 RNAi-treated nematodes): 0.52
- chemotaxis index (srh-50 RNAi-treated nematodes): 0.83
- chemotaxis index (srh-51 RNAi-treated nematodes): 0.31
- chemotaxis index (srh-52 RNAi-treated nematodes): 0.55
- chemotaxis index (srh-55 RNAi-treated nematodes): 0.56
- chemotaxis index (srh-59 RNAi-treated nematodes): 0.04
- chemotaxis index (srh-60 RNAi-treated nematodes): 0.52
- chemotaxis index (srh-61 RNAi-treated nematodes): 0.27
- chemotaxis index (srh-67 RNAi-treated nematodes): 0.39
- chemotaxis index (srh-68 RNAi-treated nematodes): 0.36
- chemotaxis index (srh-69 RNAi-treated nematodes): 0.35
- chemotaxis index (srh-70 RNAi-treated nematodes): 0.41
- chemotaxis index (srh-71 RNAi-treated nematodes): 0.56
- chemotaxis index (srh-72 RNAi-treated nematodes): 0.50
- chemotaxis index (srh-74 RNAi-treated nematodes): 0.26
- chemotaxis index (srh-75 RNAi-treated nematodes): 0.71
- chemotaxis index (srh-77 RNAi-treated nematodes): 0.44
- chemotaxis index (srh-79 RNAi-treated nematodes): 0.12
- chemotaxis index (srh-80 RNAi-treated nematodes): 0.40
- chemotaxis index (srh-82 RNAi-treated nematodes): 0.31
- chemotaxis index (srh-83 RNAi-treated nematodes): 0.38
- chemotaxis index (srh-97 RNAi-treated nematodes): 0.66
- chemotaxis index (srh-99 RNAi-treated nematodes): 0.29
- chemotaxis index (srh-100 RNAi-treated nematodes): 0.30
- chemotaxis index (srh-104 RNAi-treated nematodes): −0.18
- chemotaxis index (srh-105 RNAi-treated nematodes): 0.32
- chemotaxis index (srh-109 RNAi-treated nematodes): 0.32
- chemotaxis index (srh-111 RNAi-treated nematodes): −0.23
- chemotaxis index (srh-113 RNAi-treated nematodes): 0.35
- chemotaxis index (srh-115 RNAi-treated nematodes): 0.19
- chemotaxis index (srh-116 RNAi-treated nematodes): 0.35
- chemotaxis index (srh-118 RNAi-treated nematodes): 0.36
- chemotaxis index (srh-119 RNAi-treated nematodes): 0.37
- chemotaxis index (srh-120 RNAi-treated nematodes): 0.54
- chemotaxis index (srh-122 RNAi-treated nematodes): 0.47
- chemotaxis index (srh-123 RNAi-treated nematodes): 0.63
- chemotaxis index (srh-125 RNAi-treated nematodes): 0.39
- chemotaxis index (srh-128 RNAi-treated nematodes): 0.54
- chemotaxis index (srh-129 RNAi-treated nematodes): 0.71
- chemotaxis index (srh-130 RNAi-treated nematodes): 0.22
- chemotaxis index (srh-214 RNAi-treated nematodes): 0.72
- chemotaxis index (srh-216 RNAi-treated nematodes): 0.60
- chemotaxis index (srh-217 RNAi-treated nematodes): 0.94
- chemotaxis index (srh-220 RNAi-treated nematodes): 0.40
- chemotaxis index (srh-222 RNAi-treated nematodes): 0.65
- chemotaxis index (srh-223 RNAi-treated nematodes): 0.43
- chemotaxis index (srh-227 RNAi-treated nematodes): 0.35
- chemotaxis index (srh-229 RNAi-treated nematodes): 0.09
- chemotaxis index (srh-233 RNAi-treated nematodes): 0.49
- chemotaxis index (srh-235 RNAi-treated nematodes): 0.73
- chemotaxis index (srh-236 RNAi-treated nematodes): 0.44
- chemotaxis index (srh-239 RNAi-treated nematodes): 0.54
- chemotaxis index (srh-241 RNAi-treated nematodes): 0.78
- chemotaxis index (srh-243 RNAi-treated nematodes): 0.48
- chemotaxis index (srh-244 RNAi-treated nematodes): 0.34
- chemotaxis index (srh-247 RNAi-treated nematodes): 0.49
- chemotaxis index (srh-250 RNAi-treated nematodes): 0.55
- chemotaxis index (srh-251 RNAi-treated nematodes): 0.32
- chemotaxis index (srh-252 RNAi-treated nematodes): 0.87
- chemotaxis index (srh-258 RNAi-treated nematodes): 0.44
- chemotaxis index (srh-261 RNAi-treated nematodes): 0.57
- chemotaxis index (srh-264 RNAi-treated nematodes): 0.85
- chemotaxis index (srh-266 RNAi-treated nematodes): −0.14
- chemotaxis index (srh-274 RNAi-treated nematodes): 0.12
- chemotaxis index (srh-275 RNAi-treated nematodes): 0.42
- chemotaxis index (srh-276 RNAi-treated nematodes): 0.44
- chemotaxis index (srh-277 RNAi-treated nematodes): 0.81
- chemotaxis index (srh-279 RNAi-treated nematodes): 0.37
- chemotaxis index (srh-281 RNAi-treated nematodes): 0.01
- chemotaxis index (srh-282 RNAi-treated nematodes): 0.55
- chemotaxis index (srh-283 RNAi-treated nematodes): 0.26
- chemotaxis index (srh-284 RNAi-treated nematodes): 0.49
- chemotaxis index (srh-291 RNAi-treated nematodes): 0.82
- chemotaxis index (srh-292 RNAi-treated nematodes): 0.43
- chemotaxis index (srh-293 RNAi-treated nematodes): 0.59
- chemotaxis index (srh-297 RNAi-treated nematodes): 0.29
- chemotaxis index (srh-298 RNAi-treated nematodes): 0.33
- chemotaxis index (srh-308 RNAi-treated nematodes): 0.15
